Results on four compounds are retold here after patent EP0596284A2, “Antimycotic cosmetic and dermatological compositions containing fatty acid esters” (Beiersdorf Aktiengesellschaft, priority 1992, dated 1994).

Where two headings read alike, the source gives them in different places.

This test has as its system Pityrosporum ovale. Briefly: Agar diffusion test, inhibition zones around wells on selective agar plates. Type of test: cell-based. Conditions: for zone of inhibition at 0.5 % / zone of inhibition at 1 % / zone of inhibition at 5 % / zone of inhibition at 10 %: Malassezia furfur, 72 h, read-out: mittlerer Hemmhof-Durchmesser. The procedure:
Testlösungen: • TY-Medium 10 g Trypton + 5 g Hefeextrakt + 10 g NaCI, aufgelöst in 1000 ml H20, gepuffert auf pH 7,4 , autoklaviert. • Testverbindung 1: Hexyllaurat • Testverbindung 2: Isopropylstearat • Testverbindung 3: Caprylsäure-/Caprinsäure-Triglycerid • Testverbindung 4: Glyceryllaurat
Pityrosporum ovale von drei Patienten mit Pityrosporum-Follikulitis, Pityriasis versicolor oder seborrhoischem Ekzem wurde in einer Mischung aus 50 % TY-Medium, 30 % Olivenöl und 20 % Tween 80 suspendiert. Die drei verschiedenen Hefestämme wurden in drei parallelen Ansätzen auf einer Selektivagarplatte für pathogene Pilze (Merck AG, Darmstadt) gleichmäßig ausgespatelt. Mit Hilfe steriler Korkbohrer wurden in jede Platte mehrere kreisrunde Vertiefungen gestanzt, in die Vertiefungen mit einem Durchmesser von 5 mm wurden jeweils 25 ul der Testlösungen gegeben. Die Testlösungen stellten 0,5 %-ige, 1,0 %- ige, 2,5 %-ige, 5,0 %-ige und 10,0 %-ige Lösungen der Testsubstanzen in Ethanol dar.
Nach dreistündiger Inkubation bei 37 C wurde das verdunstete Lösungsmittel durch je 25 ul Jojobaöl ersetzt und die Platten anschließend unter Beibehaltung der Wachstumsbedingungen drei Tage inkubiert. Während dieser Zeit diffundierten die Testsubstanzen in den die Vertiefungen umgebenden Nährboden.
Antimycotisch wirksame Testverbindungen zeigten nach dreitägiger Inkubation einen deutlichen konzentrischen Hemmhof um die Vertiefungen. Die Größe dieser Hemmhöfe, wiedergegeben in Tabelle 1, ist bei vergleichbarer Substanzkonzentration ein Maß für die antimycotische Wirksamkeit der Testverbindungen.

Setting [1] is: Konz. 0,5 % in Ethanol, 25 ul per 5 mm well, three patient strains, three days at 37 C.
Where [2] appears, read: Konz. 1,0 % in Ethanol, 25 ul per 5 mm well, three patient strains, three days at 37 C.
Where [3] appears, read: Konz. 5,0 % in Ethanol, 25 ul per 5 mm well, three patient strains, three days at 37 C.
[4] abbreviates: Konz. 10,0 % in Ethanol, 25 ul per 5 mm well, three patient strains, three days at 37 C.

In the case of `CCCCCCCCCCCC(=O)OCC(O)CO` (stereo not shown) [Testlösung 4, Glyceryllaurat], the zone of inhibition at 0.5 % was 11 mm, the zone of inhibition at 1 % came out at 14 mm, the zone of inhibition at 5 % came to 16.5 mm and the zone of inhibition at 10 % came to 16.5 mm.
For the compound `CCCCCCCCCCCCCCCCCC(=O)OC(C)C` [Testlösung 2, Isopropylstearat], the zone of inhibition at 0.5 % under setting [1] was 10.7 mm. Further, under setting [2], the zone of inhibition at 1 % was found to be 14 mm. The zone of inhibition at 5 % under setting [3] turned out to be 18.7 mm. Further, the zone of inhibition at 10 % under setting [4] came to 20.7 mm.
Taken in the same sequence, the figures for `CCCCCCCCCCCC(=O)OCCCCCC` [Testlösung 1, Hexyllaurat] were 14 mm, 15.5 mm, 18 mm and 20.7 mm.
Regarding “Caprylsäure-/Caprinsäure-Triglycerid [Testlösung 3]”, the “mittlerer Hemmhof-Durchmesser” value is recorded as 9,0 mm under setting [1], 9,0 mm under setting [2], 15,0 mm under setting [3] and 17,3 mm under setting [4].
